Reference: ChEMBL document CHEMBL4118282 (Bioorg Med Chem Lett, 2018)

Tests used:
[1] = Therapeutic index, ratio of CC50 for human MT4 cells to EC50 for HIV1 3B […] infected in human MT4 cells; type: toxicity, cell-based; settings: read-out: Ratio CC50/EC50
[2] = Cytotoxicity against human MT4 cells assessed as reduction in cell viability after 5 days by MTT assay; type: cell-based

Row | Compound | selectivity ratio [1] | CC50 at 120 h [2]
1 | CC(C)[C@H](NC(=O)N(C)Cc1c[se]c(-c2ccccc2)n1)C(=O)N[C@@H](Cc1ccccc1)C[C@H](O)[C@H](Cc1ccccc1)NC(=O)OCc1cncs1 | 124 | 21 µM
2 | CC(C)c1nc(CN(C)C(=O)N[C@H](C(=O)N[C@@H](Cc2ccccc2)C[C@H](O)[C@H](Cc2ccccc2)NC(=O)OCc2cncs2)C(C)C)c[se]1 | 76 | 42 µM
